Key:
[1] = test system: CHOP-sensitive NHL cell line CRL2631; test: Cell growth assay (resazurin fluorescence) on CRL2631 cells; assay type: cell-based, human
Excerpt: Several human cell lines were utilized as in vitro models of NHL, including the CRL2631 line obtained from the American Type Culture Collection (ATCC). CRL2631 was established from peripheral blood leukocytes (PBL) of a patient with DLBCL.
(§1) In these experiments, the following cell lines were used: CHOP-resistant NHL cell line G3, CHOP-sensitive NHL cell line CRL2631, the multi-drug resistant sarcoma cell line MES-SA-Dx5; multi-drug-resistant breast cancer cell line MDA-MB-231, multi-drug resistant ovarian carcinoma cell line SK-OV3, multi-drug resistant ovarian cancer cell line NCI/ADR-RES, drug-sensitive ovarian cancer cell line OVCAR-5, and multi-drug resistant ovarian cancer cell line OVCAR-3.
Additional cell lines used include: ovarian cancer OVCAR-8. T lymphoblastoid leukemia MOLT-4, dexamethasone-resistant multiple myeloma MM.1R, myeloid leukemia cells HL-60, osteosarcoma cells U-2 OS, and myeloma RPMI 8226.

[2] = test system: CHOP-resistant G3 NHL cells; test: Cell growth assay (resazurin fluorescence) on G3 cells; assay type: cell-based, human
Protocol: Compositions were tested on CHOP-resistant G3 NHL cells that had been cultivated in RPMI medium for five days. Prior to assay, the cells were counted by haemocytometer and cell concentration standardized to 625,000 cells/ml. Test drugs were solubilized in 100% DMSO and then diluted to final assay concentration with 0.1M phosphate buffered saline (PBS) and a final DMSO concentration of 0.5%. […] The metabolic dye rezasurin was added to the wells of the assay plate at a final concentration of 20 μg/ml and the plates were incubated for an additional 24 hours. The plates were then read in a BMG Polarstar plate reader at wavelength (573-605) and the data plotted as OD versus increasing dilutions (i.e., decreasing total amounts) of rifabutin derivative concentration.
as §1, with “OVCAR-3. […]” for “OVCAR-3.”

[3] = test system: primary human fibroblasts; test: Comparative cytotoxicity on primary human fibroblasts; conditions: FIG. 3A and 3B
ABCB1 pumps = ABCB1 pumps (Homo sapiens, UniProt P08183); conditions: NCI/ADR-RES and G3 cells
Sequence of ABCB1 pumps (P08183 whole entry): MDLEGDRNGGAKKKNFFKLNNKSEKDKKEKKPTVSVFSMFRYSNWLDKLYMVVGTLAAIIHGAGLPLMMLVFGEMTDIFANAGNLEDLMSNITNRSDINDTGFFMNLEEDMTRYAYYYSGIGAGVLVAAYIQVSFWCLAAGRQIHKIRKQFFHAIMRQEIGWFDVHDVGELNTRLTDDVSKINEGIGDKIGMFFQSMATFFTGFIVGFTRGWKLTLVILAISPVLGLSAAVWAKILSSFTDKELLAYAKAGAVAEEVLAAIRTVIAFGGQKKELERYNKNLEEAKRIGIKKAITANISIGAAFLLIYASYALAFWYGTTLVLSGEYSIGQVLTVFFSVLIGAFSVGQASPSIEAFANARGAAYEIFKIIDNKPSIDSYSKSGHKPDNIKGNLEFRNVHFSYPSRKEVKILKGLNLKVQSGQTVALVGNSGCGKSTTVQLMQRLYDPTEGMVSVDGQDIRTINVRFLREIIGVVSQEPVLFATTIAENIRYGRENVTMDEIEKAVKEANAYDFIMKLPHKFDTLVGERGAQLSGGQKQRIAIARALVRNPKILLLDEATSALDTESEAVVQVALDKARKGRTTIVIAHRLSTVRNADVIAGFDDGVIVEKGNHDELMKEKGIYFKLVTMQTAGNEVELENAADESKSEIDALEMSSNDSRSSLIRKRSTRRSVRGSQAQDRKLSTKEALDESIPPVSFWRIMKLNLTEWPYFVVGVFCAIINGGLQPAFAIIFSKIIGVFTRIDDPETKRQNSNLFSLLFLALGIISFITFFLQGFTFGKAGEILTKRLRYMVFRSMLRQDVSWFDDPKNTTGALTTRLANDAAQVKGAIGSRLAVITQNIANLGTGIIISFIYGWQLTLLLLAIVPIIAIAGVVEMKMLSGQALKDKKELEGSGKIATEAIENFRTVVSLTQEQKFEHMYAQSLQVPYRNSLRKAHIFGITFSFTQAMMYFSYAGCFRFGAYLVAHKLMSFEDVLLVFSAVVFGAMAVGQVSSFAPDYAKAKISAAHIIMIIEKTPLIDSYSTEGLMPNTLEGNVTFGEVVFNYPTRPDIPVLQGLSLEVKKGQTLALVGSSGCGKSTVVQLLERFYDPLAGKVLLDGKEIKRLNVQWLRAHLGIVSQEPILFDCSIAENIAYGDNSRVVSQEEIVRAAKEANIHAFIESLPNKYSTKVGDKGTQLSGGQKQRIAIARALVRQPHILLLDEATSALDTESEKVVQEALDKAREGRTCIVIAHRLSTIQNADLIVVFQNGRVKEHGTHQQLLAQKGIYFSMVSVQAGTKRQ

[4] = test system: lymphoma aspirate from a dog with CHOP-resistant lymphoma; test: CHOP responsiveness of lymphoma aspirate from a dog (resazurin); assay type: cell-based
Protocol: A single lymphoma aspirate from a dog with CHOP-resistant lymphoma was tested for responsiveness to CHOP in the presence or absence of rifabutin. CHOP-responsiveness was measured by a decrease in fluorescence signal generated by resazurin.

[5] = test system: G3 CHOP-resistant NHL cells; test: G3 tumor efficacy studies in SCID mice; assay type: in vivo
Protocol: In a first efficacy study, 6-8 week old female SCID mice (7 mice per treatment arm) were injected subcutaneously on both flanks with 1×10^7 G3 CHOP-resistant NHL cells. Once palpable tumors (about […] size) appeared, therapies (CHOP or CHOP+rifabutin) were started. CHOP was administered at the maximum tolerated dose (cyclophosphamide, 40 mg/kg i.v.; doxorubicin, 3.3 mg/kg i.v.; vincristine, 0.5 mg/kg i.v.; and prednisone, 0.2 mg/kg orally daily for 5 d) weekly for 3 weeks. Rifabutin in an amount of 100 mg/kg was administered on the day of each CHOP treatment and 24-hours later by gavage. Mouse body weight and tumor size were monitored every two days and tumor size measured by caliper. The tumor volume formula (L*W*W)/2 was used to calculate tumor mass.
A second efficacy study was conducted where mice were treated before the appearance of palpable tumors. In that experiment, one week after transplantation of CHOP-resistant G3 cells, one group (7 mice) was treated with CHOP-only and a second group (8 mice) was treated with CHOP+rifabutin.
A third study was conducted in which mice injected with CHOP-resistant G3 cells received reduced dosages of CHOP in combination with 33 mg/kg rifabutin. CHOP+rifabutin was administered weekly beginning one week post-inoculation. Control mice were given no CHOP or rifabutin.
SCID mice were injected with CHOP-resistant G3 cells in the same manner as the first efficacy study above. Treatments began 2 weeks post-inoculation and were administered twice weekly.

Akt = test: Effect on Akt; assay type: cell-based
Excerpt: Although some drug-sensitization or cancer cell inhibition effects may be mediated by the ROS pathway, compositions and methods of the present disclosure may act via other cellular pathways alternatively to or in addition to the Akt/14-3-3ζ/ETC/ROS network. This may be particularly true with respect to drug-sensitization to chemotherapeutics that operate in a different manner than CHOP. For example, ROS may affect the mitochondrial-directed Bcl-2 apoptosis pathway as well. […] Accordingly, it appears likely that an initial ROS induction event may occur, followed by a secondary downstream effect downregulating Akt. In CHOP-resistant cells, Akt is constitutively active thereby increasing Complex I activity resulting in decreases in ROS. Induction of ROS by compositions and methods of the present disclosure will further promote drug sensitivity in the resistant cancer cell by downregulating the Akt pathway.

CO[C@H]1/C=C/O[C@@]2(C)Oc3c(C)c(O)c4c(c3C2=O)C2=NC3(CCN(CC(C)C)CC3)NC2=C(NC(=O)/C(C)=C\C=C\[C@H](C)[C@H](O)[C@@H](C)[C@@H](O)[C@@H](C)[C@H](OC(C)=O)[C@@H]1C)C4=O [Rifabutin, rifabutin]
Sensitivity of cells to CHOP ([1]; CHOP-sensitive cells, relative to a control drug, FIG. 2B): enhanced the sensitivity
Effect on growth of cells in the absence of CHOP ([1]; CRL2631 cells, FIG. 2A): did not affect the growth
Sensitization of low-ROS cell population to CHOP ([1]; low-ROS CRL2631 cells, 10 uM rifabutin, FIG. 34): sensitized to CHOP
Magnitude of potentiation in combination with doxorubicin ([2]; G3): +++ (+++ potentiation greater than 5 fold increase)
Effect on growth of cells in the absence of CHOP ([2]; G3 cells, FIG. 2A): did not affect the growth
Toxicity to normal cells [3]: not toxic
Inhibition of efflux pumps (ABCB1 pumps): clear inhibition
Sensitivity of aspirated lymphoma cells to CHOP ([4]; 5 μM rifabutin): significantly enhanced the sensitivity
Effect on cell viability in the absence of CHOP ([4]; absence of CHOP): no effect
Overall tumor burden per mouse versus CHOP only ([5]; first study, CHOP at maximum tolerated dose weekly for 3 weeks + rifabutin 100 mg/kg by gavage): much lower
Tumor load versus untreated mice ([5]; third study, reduced dosages of CHOP + 33 mg/kg rifabutin weekly): significantly less
Time for the effect on Akt (Akt): at least 18 hours

— patent US9539237B2, “Compositions and methods for drug-sensitization or inhibition of a cancer cell” (The Texas A&M University System, priority 2012, dated 2017)
